Measured values taken from ChEMBL document CHEMBL5120944, “Neocucurbols A-H, Phomactin Diterpene Derivatives from the Marine-Derived Fungus Neocucurbitaria unguis-hominis FS685” (J Nat Prod, 2022).

Experiments:
Assay type in all cases: toxicity, cell-based
[1] = Cytotoxicity against human HepG2 cells assessed as reduction in cell viability after 24 hrs by SRB assay
[2] = Cytotoxicity against human SF-268 cells assessed as reduction in cell viability after 24 hrs by SRB assay
[3] = Cytotoxicity against human MCF7 cells assessed as reduction in cell viability after 24 hrs by SRB assay
[4] = Cytotoxicity against human A549 cells assessed as reduction in cell viability after 24 hrs by SRB assay

Measured: IC50 at 24 h

CC1=CC[C@H]2[C@]3(O[C@H]4[C@]2(C)[C@@H](O)C[C@@]2(C)[C@H](C)CC=C3[C@@]42O)[C@H]1O
> 10 µM: all assays above

C/C1=C/C[C@@]2(C)[C@H](C)CC=C([C@@H]3[C@@H]1CC[C@](C)(O)[C@H]3O)[C@H]2C
> 10 µM: all assays above

C[C@@H]1CC=C2[C@H]3[C@H](O)[C@@](C)(O)CC[C@@H]3[C@@](C)(O)CC[C@]1(C)[C@@H]2C
> 10 µM: all assays above

CC1=CC[C@@H]2[C@@]3(C)CC[C@]4(C)C5=C([C@@H](O)C[C@H]4C)[C@@]2(O[C@H]53)[C@H]1O
> 10 µM: all assays above

CC1=CC[C@@H]2[C@@]3(C)CC[C@@]4(C)[C@H](C)[C@@H](O)C=C5[C@@]2(O[C@@H]3[C@]54O)[C@H]1O
> 10 µM: all assays above

C=C1CC[C@@]2(C)[C@H](C)C[C@@H]3O[C@]3([C@@H]3[C@@H]1CC[C@](C)(O)[C@H]3O)[C@H]2C
> 10 µM: all assays above

C=C1CC[C@@]2(C)[C@H](C)CC=C([C@@H]3[C@@H]1CC[C@](C)(O)[C@H]3O)[C@H]2C
> 10 µM: all assays above

CC1=CC[C@@H]2[C@@]3(C)CC[C@@]4(C)[C@H](C)CC(=O)[C@H]5[C@@]2(O[C@@H]3[C@]54O)[C@H]1O
> 10 µM: all assays above
